Data set [1] concerns human PBMC. In words: IL-23 in supernatants of human PBMC, ELISA (Example 6, Table 25). In kind it is cell-based. The procedure:
(§1) Peripheral blood was drawn from healthy volunteers (with approval from the relevant ethical committee in Denmark). Heparinized blood was diluted 1/1 v/v with RPMI and were subjected to Ficoll density centrifugation within 2 h of drawing. Plasma was collected from the top from individual donors and was kept on ice until it was used at 2% in the culture medium (autologous culture medium). Isolated PBMC were resuspended in autologous culture medium and seeded in 96-well culture plates with 255.000 cells per well in a total of 200 μl. […] The concentrations used for stimulation were optimized on 3 different donors in initial experiments, for LPS two different concentrations were used to be sure to be on a cytokine level that is possible to modulate. In some experiments PBMC were treated with Dexamethason and Indomethacin alone and together with LPS or LTA as a control on downregulation of inflammatory cytokines. The supernatants were collected after incubation at 37° C. for 24 hours, and stored at −80° C. until cytokine measurement. Viability was measured by Alamar Blue (Biosource, DALL 1100) in all experiments and in some cases also by MTS (Promega) according to manufacturer's instruction and was in some experiments also judged by counting of the cells by a Nucleocounter.
Example 6 was carried out essentially as described in Example 4 for human PBMCs; however, the readout was IL-23 instead of TNF, IL-1β and IL-10. Moreover, the effect of rhBD2 on human monocyte-derived dendritic cells was also investigated.
Cell culture supernatants were collected and stored at −80° C. Amounts of IL-23 was measured by standard sandwich ELISA using commercially available antibodies and standards according to the manufacturer's protocols (eBioscience).
All experiments were performed at least twice, with representative results shown. The data presented are expressed as mean plus/minus standard deviation […]. […] Differences were considered significant for p<0.05.

The subject of data set [2] is mouse peripheral blood mononuclear cells (PBMC). In words: TNF production from LPS-treated mouse PBMC, CBA (Example 7). In kind it is cell-based, mouse (NMRI). The procedure:
(§2) Example 7 was carried out essentially as described in Example 4 for human PBMCs. […] The amino acid sequence of mBD3 is shown in SEQ ID NO:6. Mouse PBMCs were prepared as described below.
Mouse peripheral blood mononuclear cells were isolated from blood of ten NMRI mice. In short, heparinized blood was diluted 1/1 v/v with RPMI and subjected to Ficoll density centrifugation within 2 h of drawing. Plasma was collected from the top and discarded. Isolated PBMC were resuspended in culture medium (RPMI 1640 (Gibco, 42401) w/ 1% penicillin and streptomycin and 1% L-Glutamine) and seeded in 96-well culture plates with 115.500 cells per well in a total of 200 μl. […] The supernatants were collected after incubation at 37° C. for 24 hours, and stored at −80° C. until cytokine measurement.
Cytokine production in supernatants was measured by flow cytometry with a mouse inflammation cytometric bead array (CBA) according to manufacturer's instructions (BD) on a FACSarray flow cytometer.

The test system of data set [3] is human peripheral blood mononuclear cells (PBMC). Description: TNF production from LPS-treated human PBMC, CBA (Example 5). In kind it is cell-based. The conditions noted are these: Table 21. The procedure: as §1
(§3) Cytokine production in supernatants was measured by flow cytometry with a human inflammation cytometric bead array (CBA) according to manufacturer's instructions (BD) on a FACSarray flow cytometer. The following cytokines were measured: IL-8, IL-1β, IL-10, TNF, IL-12 p70, IL-6. In some experiments, cytokines were measured by ELISA kits from R&D systems (IL-10, TNF-α, IL-1β) according to the manufacturer′ instruction.
(§4) Example 5 was carried out essentially as described in Example 4.
(§5) In each table, all samples were tested on the same donor. SD means standard deviation.

The test system is the same in data set [4]. In words: IL-10 production from LPS-treated human PBMC, CBA (Example 5). In kind it is cell-based. The conditions noted are these: Table 22. The procedure: as §1, §3, §5
The test system is the same in data set [5]. Description: TNF production from LPS-treated human PBMC, CBA (Example 7, Table 26). In kind it is cell-based. As for the experimental part: as §1, §3, §2
Data set [6] shares this test system. In words: IL-1β production from LPS-treated human PBMC, CBA (Example 5, Table 23). Format: cell-based. The procedure:
as §1, §3, §4, §5

For data set [7], the system named is human PBMC. In words: Toxicity to human PBMC (Example 5). Format: cell-based. As for the experimental part:
as §1, §4

Setting [8] is: concentration not given, LPS 0.6 ng/ml.
The mark [9] stands for this setting: concentration not given, LPS 20 ng/ml.
The mark [10] stands for this setting: concentration not given, Medium.
The mark [11] stands for this setting: LPS 0.6 ng/ml, test compound 1 μg/ml.
The mark [12] stands for this setting: LPS 20 ng/ml, test compound 1 μg/ml.
Setting [13] is: Medium (no LPS), test compound 1 μg/ml.
[14] abbreviates: LPS 0.6 ng/ml, concentration of test compound not given.
[15] abbreviates: LPS 20 ng/ml, concentration of test compound not given.
[16] abbreviates: LPS 0.6 ng/ml, test compound 10 μg/ml.
Where [17] appears, read: LPS 0.6 ng/ml, test compound 40 μg/ml.
[18] abbreviates: LPS 20 ng/ml, test compound 10 μg/ml.
[19] abbreviates: LPS 20 ng/ml, test compound 40 μg/ml.
[20] abbreviates: Medium (no LPS), test compound 10 μg/ml.

Here are results for five compounds from patent US9279010B2, “Treatment of inflammatory bowel diseases with mammal beta defensins” (Defensin Therapeutics ApS, priority 2008, dated 2016).

Where no end group is shown, it is not given here.

As for `C[C@@H]1C[C@H]2[C@@H]3CCC4=CC(=O)C=C[C@]4(C)[C@@]3(F)[C@@H](O)C[C@]2(C)[C@@]1(O)C(=O)CO` [Dexamethasone], the IL-23 pg/ml with human PBMC [1] (Control (medium), test compound 3.5 ng/ml) was determined as 222 pg/mL; with human PBMC [1] (LTA 5 μg/ml, test compound 3.5 ng/ml) it was 223 pg/mL.
On to “Infliximab: anti-inflammatory compound, positive control on downregulation of TNF [reference compound]”, for which the TNF in data set [2] (1 μg/ml, LPS 20 ng/ml) was 2119 pg/mL; in data set [2] (1 μg/ml, Medium) it was 530 pg/mL; in data set [3] (setting [8]), 0 pg/mL; in data set [3] (setting [9]), 0 pg/mL; in data set [3] (setting [10]), 0 pg/mL; in data set [5] (setting [12]), 1 pg/mL. In data set [5] (setting [13]), this compound gave a TNF of 0 pg/mL. Further, the “TNF % of control” value in data set [3] (setting [8]) and in data set [3] (setting [9]) was 0% throughout. The IL-23 pg/ml in the data set with human PBMC [1] (Control (medium), test compound 1 μg/ml) was found to be 227 pg/mL; in the data set on human PBMC [1] (setting [11]), 356 pg/mL; with human PBMC [1] (setting [12]) it was 373 pg/mL; in the data set on human PBMC [1] (LTA 5 μg/ml, test compound 1 μg/ml) it was 349 pg/mL. The IL-10 is 46 pg/mL in data set [4] (setting [8]), 63 pg/mL in data set [4] (setting [9]) and 0 pg/mL in data set [4] (setting [10]). Besides, the figures for the “IL-10 % of control” value in data set [4] (setting [8]) and in data set [4] (setting [9]) were 69% and 56%, respectively. For the same compound, the IL-1β came to 636 pg/mL in data set [6] (setting [14]); 2704 pg/mL in data set [6] (setting [15]); 0 pg/mL in data set [6] (Medium (no LPS), concentration of test compound not given). Moreover, the “IL-1β % of control” value is given as 86% in data set [6] (setting [14]) and 106% in data set [6] (setting [15]).
For the compound “hBD1: human beta defensin 1 (SEQ ID NO:1), prepared using chemical synthesis (DHYNCVSSGGQCLYSACPIFTKIQGTCYRGKAKCCK; not fully specified; cysteine pairing not given here; listed as Homo sapiens)”, the TNF in data set [3] (1 μg/ml, LPS 0.6 ng/ml) is 474 pg/mL; in data set [3] (1 μg/ml, LPS 20 ng/ml), 1395 pg/mL; in data set [3] (1 μg/ml, Medium), 1 pg/mL; in data set [3] (10 μg/ml, LPS 0.6 ng/ml), 203 pg/mL; in data set [3] (10 μg/ml, LPS 20 ng/ml), 1311 pg/mL; in data set [3] (10 μg/ml, Medium), 0 pg/mL. The TNF was determined as 91 pg/mL in data set [3] (40 μg/ml, LPS 0.6 ng/ml); 999 pg/mL in data set [3] (40 μg/ml, LPS 20 ng/ml); 0 pg/mL in data set [3] (40 μg/ml, Medium). Besides, the “TNF % of control” value in data set [3] (1 μg/ml, LPS 0.6 ng/ml) is on record as 65%; in data set [3] (1 μg/ml, LPS 20 ng/ml), 64%; in data set [3] (10 μg/ml, LPS 0.6 ng/ml), 28%; in data set [3] (10 μg/ml, LPS 20 ng/ml), 61%; in data set [3] (40 μg/ml, LPS 0.6 ng/ml) it was 13%; in data set [3] (40 μg/ml, LPS 20 ng/ml) it was 46%. Moreover, the IL-10 in data set [4] (1 μg/ml, LPS 0.6 ng/ml) amounted to 71 pg/mL; in data set [4] (1 μg/ml, LPS 20 ng/ml), 95 pg/mL; in data set [4] (1 μg/ml, Medium), 0 pg/mL; in data set [4] (10 μg/ml, LPS 0.6 ng/ml) it was 76 pg/mL; in data set [4] (10 μg/ml, LPS 20 ng/ml) it was 100 pg/mL; in data set [4] (10 μg/ml, Medium) it was 0 pg/mL. Moreover, the IL-10 turned out to be 69 pg/mL in data set [4] (40 μg/ml, LPS 0.6 ng/ml); 113 pg/mL in data set [4] (40 μg/ml, LPS 20 ng/ml); 0 pg/mL in data set [4] (40 μg/ml, Medium). For the same compound, the “IL-10 % of control” value worked out at 108% in data set [4] (1 μg/ml, LPS 0.6 ng/ml); 85% in data set [4] (1 μg/ml, LPS 20 ng/ml); 114% in data set [4] (10 μg/ml, LPS 0.6 ng/ml); 90% in data set [4] (10 μg/ml, LPS 20 ng/ml); 104% in data set [4] (40 μg/ml, LPS 0.6 ng/ml); 102% in data set [4] (40 μg/ml, LPS 20 ng/ml). Moreover, the IL-1β in data set [6] (setting [11]) was determined as 512 pg/mL; in data set [6] (setting [16]) it was 401 pg/mL; in data set [6] (setting [17]) it was 302 pg/mL; in data set [6] (setting [12]), 2087 pg/mL; in data set [6] (setting [18]) it was 1913 pg/mL; in data set [6] (setting [19]) it was 1599 pg/mL. In addition, the IL-1β in data set [6] (setting [13]) stood at 0 pg/mL; in data set [6] (setting [20]) it was 0 pg/mL; in data set [6] (Medium (no LPS), test compound 40 μg/ml), 0 pg/mL. Moreover, the “IL-1β % of control” value in data set [6] (setting [11]) was determined as 69%; in data set [6] (setting [16]), 54%; in data set [6] (setting [17]), 41%; in data set [6] (setting [12]), 82%; in data set [6] (setting [18]), 75%; in data set [6] (setting [19]), 63%.
Turning to “hBD3: human beta defensin 3 (SEQ ID NO:3), prepared using chemical synthesis”, the TNF turned out to be 528 pg/mL in data set [3] (1 μg/ml, LPS 0.6 ng/ml); 451 pg/mL in data set [3] (1 μg/ml, LPS 20 ng/ml); 0 pg/mL in data set [3] (1 μg/ml, Medium). The “TNF % of control” value in data set [3] (1 μg/ml, LPS 0.6 ng/ml) was 73%; in data set [3] (1 μg/ml, LPS 20 ng/ml), 21%. In addition, the “toxicity to the cells” value in the data set on human PBMC [7] (10 μg/ml) and with human PBMC [7] (40 μg/ml) was “toxic to the cells” each time. Also, the IL-10 came out at 71 pg/mL in data set [4] (1 μg/ml, LPS 0.6 ng/ml) and 0 pg/mL in data set [4] (1 μg/ml, Medium). The “IL-10 % of control” value in data set [4] (1 μg/ml, LPS 0.6 ng/ml) is listed as 107%; in data set [4] (1 μg/ml, LPS 20 ng/ml), 137%. For the same compound, the IL-1β in data set [6] (setting [11]) was determined as 331 pg/mL; in data set [6] (setting [12]) it was 568 pg/mL; in data set [6] (setting [13]), 0 pg/mL. The “IL-1β % of control” value in data set [6] (setting [11]) is reported as 45%; in data set [6] (setting [12]), 22%.
As for “mBD3: mouse beta defensin 3 (SEQ ID NO:6), prepared with the same protocol as hBD2 (KINNPVSCLRKGGRCWNRCIGNTRQIGSCGVPFLKCCKRK; mat_peptide (1)..(40); listed as Mus musculus)”, the TNF in data set [2] (1 μg/ml, LPS 20 ng/ml) is 1600 pg/mL; in data set [2] (1 μg/ml, Medium), 347 pg/mL; in data set [2] (10 μg/ml, LPS 20 ng/ml), 297 pg/mL; in data set [2] (10 μg/ml, Medium) it was 180 pg/mL; in data set [2] (100 μg/ml, LPS 20 ng/ml) it was 195 pg/mL; in data set [2] (100 μg/ml, Medium), 182 pg/mL. Besides, the TNF in data set [5] (setting [12]) came to 384 pg/mL; in data set [5] (setting [18]), 51 pg/mL; in data set [5] (LPS 20 ng/ml, test compound 100 μg/ml) it was 166 pg/mL; in data set [5] (setting [13]), 2 pg/mL; in data set [5] (setting [20]), 2 pg/mL; in data set [5] (Medium (no LPS), test compound 100 μg/ml), 39 pg/mL. Moreover, the “secretion of TNF” value in data set [5] (human PBMCs (Table 26)) was “downregulating the secretion of TNF from human PBMCs to the same extend as hBD2 and dexamethason”.
